{"source": "patent US20250312313A1", "about": "“PHARMACEUTICAL COMPOSITION FOR SUBLINGUAL ADMINISTRATION OF CLONIDINE” (NOVUMGEN LIMITED, priority 2022, published 2025)", "origin": "cited, not measured here", "conditions": "oral", "data": [{"compound": "Clc1cccc(Cl)c1N=C1NCCN1", "note": "[Clonidine]", "values": [{"measurement": "absorption from the gastrointestinal tract", "value": "almost completely absorbed"}]}]}
